Laboratory results taken from PubChem BioAssay (NCI).
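Results reflect a 48-hour exposure of cells in 96-well plates to compound at five concentrations. Here, GI50 denotes the concentration required for 50% inhibition of growth. At the TGI there is no net growth.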

Experiments:
Assay in all cases: NCI anticancer screen, dose series, 48 h
786-0 renal = test system: 786-0 renal
A549 NSCLC = test system: A549 NSCLC
ACHN renal = test system: ACHN renal
BT-549 breast = test system: BT-549 breast
CAKI-1 renal = test system: CAKI-1 renal
CCRF-CEM leukemia = test system: CCRF-CEM leukemia
COLO 205 colon = test system: COLO 205 colon
DU-145 prostate = test system: DU-145 prostate
HCC-2998 colon = test system: HCC-2998 colon
HCT-116 colon = test system: HCT-116 colon
HCT-15 colon = test system: HCT-15 colon
HL-60(TB) leukemia = test system: HL-60(TB) leukemia
HOP-62 NSCLC = test system: HOP-62 NSCLC
HOP-92 NSCLC = test system: HOP-92 NSCLC
HS 578T breast = test system: HS 578T breast
HT29 colon = test system: HT29 colon
IGROV1 ovarian = test system: IGROV1 ovarian
K-562 leukemia = test system: K-562 leukemia
KM12 colon = test system: KM12 colon
LOX IMVI melanoma = test system: LOX IMVI melanoma
MALME-3M melanoma = test system: MALME-3M melanoma
MCF7 breast = test system: MCF7 breast
MDA-MB-231 breast = test system: MDA-MB-231 breast
MOLT-4 leukemia = test system: MOLT-4 leukemia
NCI-H23 lung = test system: NCI-H23 lung
NCI-H460 lung = test system: NCI-H460 lung
NCI/ADR-RES ovarian = test system: NCI/ADR-RES ovarian
OVCAR-4 ovarian = test system: OVCAR-4 ovarian
OVCAR-5 ovarian = test system: OVCAR-5 ovarian
OVCAR-8 ovarian = test system: OVCAR-8 ovarian
PC-3 prostate = test system: PC-3 prostate
RPMI-8226 leukemia = test system: RPMI-8226 leukemia
SF-268 CNS = test system: SF-268 CNS
SF-295 CNS = test system: SF-295 CNS
SF-539 CNS = test system: SF-539 CNS
SK-MEL-2 melanoma = test system: SK-MEL-2 melanoma
SK-MEL-5 melanoma = test system: SK-MEL-5 melanoma
SK-OV-3 ovarian = test system: SK-OV-3 ovarian
SN12C renal = test system: SN12C renal
SNB-19 CNS = test system: SNB-19 CNS
SNB-75 CNS = test system: SNB-75 CNS
SR leukemia = test system: SR leukemia
SW-620 colon = test system: SW-620 colon
T-47D breast = test system: T-47D breast
TK-10 renal = test system: TK-10 renal
U251 CNS = test system: U251 CNS
UACC-62 melanoma = test system: UACC-62 melanoma
UO-31 renal = test system: UO-31 renal
EKVX NSCLC = test system: EKVX NSCLC
M14 melanoma = test system: M14 melanoma
MDA-MB-435 = test system: MDA-MB-435
NCI-H226 lung = test system: NCI-H226 lung
NCI-H522 lung = test system: NCI-H522 lung
OVCAR-3 ovarian = test system: OVCAR-3 ovarian
UACC-257 melanoma = test system: UACC-257 melanoma

COc1cc(-c2nccc3[nH]c(-c4ccc5cc[nH]c5c4)nc23)cc(OC)c1OC
GI50 (786-0 renal): < 0.01 µM | TGI (786-0 renal): 2.03 µM | GI50 (A549 NSCLC): 0.0113 µM | TGI (A549 NSCLC): 1.77 µM | GI50 (ACHN renal): < 0.01 µM | TGI (ACHN renal): 3.02 µM | GI50 (BT-549 breast): < 0.01 µM | TGI (BT-549 breast): 2.71 µM | GI50 (CAKI-1 renal): < 0.01 µM | TGI (CAKI-1 renal): 11.2 µM | GI50 (CCRF-CEM leukemia): < 0.01 µM | TGI (CCRF-CEM leukemia): 12.2 µM | GI50 (COLO 205 colon): < 0.01 µM | TGI (COLO 205 colon): < 0.01 µM | GI50 (DU-145 prostate): < 0.01 µM | TGI (DU-145 prostate): 11.4 µM | GI50 (HCC-2998 colon): < 0.01 µM | TGI (HCC-2998 colon): 1.43 µM | GI50 (HCT-116 colon): < 0.01 µM | TGI (HCT-116 colon): 1.13 µM | GI50 (HCT-15 colon): < 0.01 µM | TGI (HCT-15 colon): 1.31 µM | GI50 (HL-60(TB) leukemia): < 0.01 µM | TGI (HL-60(TB) leukemia): < 0.01 µM | GI50 (HOP-62 NSCLC): < 0.01 µM | TGI (HOP-62 NSCLC): 2.67 µM | GI50 (HOP-92 NSCLC): 0.306 µM | TGI (HOP-92 NSCLC): 4.98 µM | GI50 (HS 578T breast): < 0.01 µM | TGI (HS 578T breast): 10.3 µM | GI50 (HT29 colon): < 0.01 µM | TGI (HT29 colon): 1.08 µM | GI50 (IGROV1 ovarian): 0.015 µM | TGI (IGROV1 ovarian): 3.77 µM | GI50 (K-562 leukemia): < 0.01 µM | TGI (K-562 leukemia): 2.28 µM | GI50 (KM12 colon): < 0.01 µM | TGI (KM12 colon): 1.5 µM | GI50 (LOX IMVI melanoma): < 0.01 µM | TGI (LOX IMVI melanoma): 1.5 µM | GI50 (MALME-3M melanoma): 1.29 µM | TGI (MALME-3M melanoma): 3.2 µM | GI50 (MCF7 breast): 0.0568 µM | TGI (MCF7 breast): 2.87 µM | GI50 (MDA-MB-231 breast): < 0.01 µM | TGI (MDA-MB-231 breast): 1.96 µM | GI50 (MOLT-4 leukemia): < 0.01 µM | TGI (MOLT-4 leukemia): 7.26 µM | GI50 (NCI-H23 lung): < 0.01 µM | TGI (NCI-H23 lung): 4.2 µM | GI50 (NCI-H460 lung): < 0.01 µM | TGI (NCI-H460 lung): 1.04 µM | GI50 (NCI/ADR-RES ovarian): 0.01 µM | TGI (NCI/ADR-RES ovarian): 10.7 µM | GI50 (OVCAR-4 ovarian): 0.0307 µM | TGI (OVCAR-4 ovarian): 17.1 µM | GI50 (OVCAR-5 ovarian): 1.3 µM | TGI (OVCAR-5 ovarian): 12.1 µM | GI50 (OVCAR-8 ovarian): < 0.01 µM | TGI (OVCAR-8 ovarian): 11.1 µM | GI50 (PC-3 prostate): < 0.01 µM | TGI (PC-3 prostate): 4.74 µM | GI50 (RPMI-8226 leukemia): 0.0448 µM | TGI (RPMI-8226 leukemia): 5.16 µM | GI50 (SF-268 CNS): < 0.01 µM | TGI (SF-268 CNS): 3.21 µM | GI50 (SF-295 CNS): < 0.01 µM | TGI (SF-295 CNS): < 0.01 µM | GI50 (SF-539 CNS): < 0.01 µM | TGI (SF-539 CNS): < 0.01 µM | GI50 (SK-MEL-2 melanoma): < 0.01 µM | TGI (SK-MEL-2 melanoma): 3.06 µM | GI50 (SK-MEL-5 melanoma): < 0.01 µM | TGI (SK-MEL-5 melanoma): 0.563 µM | GI50 (SK-OV-3 ovarian): < 0.01 µM | TGI (SK-OV-3 ovarian): 5.66 µM | GI50 (SN12C renal): < 0.01 µM | TGI (SN12C renal): 9.93 µM | GI50 (SNB-19 CNS): < 0.01 µM | TGI (SNB-19 CNS): 15.8 µM | GI50 (SNB-75 CNS): < 0.01 µM | TGI (SNB-75 CNS): 6.6 µM | GI50 (SR leukemia): < 0.01 µM | TGI (SR leukemia): 11.9 µM | GI50 (SW-620 colon): < 0.01 µM | TGI (SW-620 colon): 1.6 µM | GI50 (T-47D breast): 1.26 µM | TGI (T-47D breast): 4.38 µM | GI50 (TK-10 renal): 1.13 µM | TGI (TK-10 renal): 7.88 µM | GI50 (U251 CNS): < 0.01 µM | TGI (U251 CNS): 1.85 µM | GI50 (UACC-62 melanoma): < 0.01 µM | TGI (UACC-62 melanoma): 2.57 µM | GI50 (UO-31 renal): < 0.01 µM | TGI (UO-31 renal): 2.93 µM

C[C@H]1CC[C@@]2(OC1)O[C@H]1C[C@H]3[C@@H]4CC[C@@H]5C[C@@H](OC6OC(CO)C(O)C(O)C6OC6OC(CO)C(O)C(O)C6O)CC[C@]5(C)[C@H]4CC[C@]3(C)[C@H]1[C@@H]2C (stereo not given in full)
TGI (786-0 renal): 3.69 µM | TGI (A549 NSCLC): 3.69 µM | TGI (ACHN renal): 3.82 µM | TGI (BT-549 breast): 4.1 µM | TGI (CAKI-1 renal): 3.44 µM | TGI (CCRF-CEM leukemia): 3.73 µM | TGI (COLO 205 colon): 3.55 µM | TGI (DU-145 prostate): 4.1 µM | TGI (EKVX NSCLC): 3.79 µM | TGI (HCC-2998 colon): 3.71 µM | TGI (HCT-116 colon): 3.7 µM | TGI (HCT-15 colon): 3.67 µM | TGI (HL-60(TB) leukemia): 3.25 µM | TGI (HOP-62 NSCLC): 3.99 µM | TGI (HOP-92 NSCLC): 4.12 µM | TGI (HS 578T breast): 4.47 µM | TGI (HT29 colon): 3.68 µM | TGI (IGROV1 ovarian): 4.14 µM | TGI (K-562 leukemia): 4.33 µM | TGI (KM12 colon): 4.62 µM | TGI (LOX IMVI melanoma): 3.75 µM | TGI (M14 melanoma): 3.75 µM | TGI (MALME-3M melanoma): 4.5 µM | TGI (MCF7 breast): 3.8 µM | TGI (MDA-MB-231 breast): 3.81 µM | TGI (MDA-MB-435): 3.88 µM | TGI (MOLT-4 leukemia): 3.79 µM | TGI (NCI-H226 lung): 4.2 µM | TGI (NCI-H23 lung): 4.06 µM | TGI (NCI-H522 lung): 4.75 µM | TGI (NCI/ADR-RES ovarian): 5.03 µM | TGI (OVCAR-3 ovarian): 3.88 µM | TGI (OVCAR-4 ovarian): 4.08 µM | TGI (OVCAR-5 ovarian): 3.45 µM | TGI (OVCAR-8 ovarian): 4.26 µM | TGI (PC-3 prostate): 3.84 µM | TGI (RPMI-8226 leukemia): 3.97 µM | TGI (SF-268 CNS): 4.25 µM | TGI (SF-295 CNS): 3.95 µM | TGI (SF-539 CNS): 3.72 µM | TGI (SK-MEL-2 melanoma): 4.03 µM | TGI (SK-MEL-5 melanoma): 3.93 µM | TGI (SK-OV-3 ovarian): 3.29 µM | TGI (SN12C renal): 3.77 µM | TGI (SNB-19 CNS): 3.9 µM | TGI (SNB-75 CNS): 4.07 µM | TGI (SR leukemia): 4.3 µM | TGI (SW-620 colon): 3.4 µM | TGI (T-47D breast): 3.85 µM | TGI (TK-10 renal): 3.61 µM | TGI (U251 CNS): 4 µM | TGI (UACC-257 melanoma): 3.86 µM | TGI (UACC-62 melanoma): 4.16 µM | TGI (UO-31 renal): 3.67 µM
